The structures appear in SMILES notation. Where two headings read alike, the source gives them in different places.

Data set [1] addresses T1, hMAO-B (Homo sapiens, UniProt P27338).
T1 sequence (P27338 1-520): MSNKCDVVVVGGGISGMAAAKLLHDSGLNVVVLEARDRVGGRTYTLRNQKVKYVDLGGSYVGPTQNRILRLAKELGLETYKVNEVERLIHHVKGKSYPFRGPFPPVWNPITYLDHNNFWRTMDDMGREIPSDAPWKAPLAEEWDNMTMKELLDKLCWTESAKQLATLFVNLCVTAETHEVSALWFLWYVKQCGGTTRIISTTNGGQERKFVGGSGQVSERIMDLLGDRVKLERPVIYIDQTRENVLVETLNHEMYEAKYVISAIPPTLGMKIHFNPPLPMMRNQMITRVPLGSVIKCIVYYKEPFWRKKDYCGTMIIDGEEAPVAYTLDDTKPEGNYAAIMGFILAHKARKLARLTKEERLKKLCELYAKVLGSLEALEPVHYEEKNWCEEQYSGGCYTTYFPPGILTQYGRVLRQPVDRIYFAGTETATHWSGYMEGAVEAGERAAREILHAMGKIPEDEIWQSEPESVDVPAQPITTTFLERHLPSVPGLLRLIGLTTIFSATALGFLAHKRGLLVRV
In words: hMAO-B inhibition, IC50 determination (kynuramine fluorescence). In kind it is biochemical. The following applies: for Selectivity index (SI) for the MAO-B isoform: ratio (IC50 hMAO-A)/(IC50 hMAO-B). The method, then:
The procedure for the measurement of IC50 values for the inhibition of MAO has been reported. The enzyme reactions were prepared to a volume of […] in potassium phosphate buffer at pH 7.4 (100 mM, made isotonic with KCl) and contained kynuramine (50 μM) and the test inhibitors (0.003–100 µM). Stock solutions of the test inhibitors were prepared in DMSO and added to the reactions to yield 4% DMSO. The enzyme reactions were initiated with the addition of recombinant hMAO-A (0.0075 mg protein/mL) or hMAO-B (0.015 mg protein/mL) and incubated for 20 min at 37 °C. At endpoint, the reactions were terminated with 80 µL sodium hydroxide (2N) and the fluorescence of 4-hydroxyquinoline, the oxidation product of kynuramine, was measured (λex = 310; λem = 400 nm)[33]. 4-Hydroxyquinoline was quantified with a calibration curve (0.047–1.56 μM) and the rate of 4-hydroxyquinoline formation was fitted to the one site competition model of the Prism 5 software package (GraphPad). From the resulting sigmoidal plots, the IC50 values were estimated. All enzyme reactions were carried out in triplicate and IC50 values are given as the mean ± standard deviation (SD).

Data set [2] in a line: DPPH radical scavenging activity. As for the experimental part:
The radical scavenging effect of the compounds using the 1,1-diphenyl-2-picrylhydrazyl (DPPH) radical was estimated according to Zengin et al.[36]. The sample solution (1 ml) was added to 4 ml of a 0.004% solution of DPPH in methanol. The sample absorbance was recorded at 517 nm after 30 min incubation at room temperature in the dark.
(§1) The scavenging activity of the compounds on the ABTS radical cation [ABTS,2,2′-azino-bis(3-ethylbenzothiazoline)-6-sulphonic acid] was measured according to the method of Zengin et al.[37] with slight modification. Briefly, ABTS^+ was produced directly by reacting a 7 mM ABTS solution with 2.45 mM potassium persulphate and allowing the mixture to incubate for 12–16 h in the dark at room temperature. Prior to initiating the assay, the ABTS solution was diluted with methanol to an absorbance of 0.700 ± 0.02 at 734 nm. The sample solution (1 ml) was added to the ABTS^+ solution (2 ml) and mixed, and the sample absorbance was recorded at 734 nm after 30 min incubation at room temperature. The corresponding IC50 value, which is the effective concentration at which 50% of DPPH/ABTS radicals are scavenged, was calculated for each compound and trolox, as a reference drug.

Data set [3] is described as follows: FRAP (ferric reducing antioxidant power) assay. The method, then: (§2) The FRAP (ferric reducing antioxidant power) assay was carried out as described by Zengin et al.[38]. The sample solution (0.1 ml) was added to the premixed FRAP reagent (2 ml) containing acetate buffer (0.3 M, pH 3.6), 2,4,6-tris(2-pyridyl)-s-triazine (10 mM) in 40 mM HCl, and ferric chloride (20 mM) in a ratio of 10/1/1 (v/v/v). The absorbance of the sample was subsequently recorded at 593 nm after 30 min incubation at room temperature. Both results were expressed as EC50 values, using trolox as a reference drug.

A short description of data set [4]: Phosphomolybdenum assay (PhosphoMo), total antioxidant activity. The following applies: concentration at which absorbance was 0.5. As for the experimental part:
The total antioxidant activity of the compounds was evaluated by phosphomolybdenum method according to Zengin et al.[35]. The sample solution (0.3 ml) was combined with 3 ml of reagent solution (0.6 M sulphuric acid, 28 mM sodium phosphate, and 4 mM ammonium molybdate) and the absorbance was recorded at 695 nm after 90 min incubation at 95 °C. The EC50, which is the effective concentration at which the absorbance was 0.5, was calculated for each compound and trolox, as a reference drug.

Data set [5] in a line: Metal chelating activity on ferrous ions. The following applies: ferrozine. As for the experimental part:
Metal chelating activity on ferrous ions was evaluated by the method previously described. Briefly, the sample solution (2 ml) was added to FeCl2 solution (0.05 ml, 2 mM). The reaction was initiated by the addition of 5 mM ferrozine (0.2 ml). Similarly, a blank was prepared by adding the sample solution (2 ml) to FeCl2 solution (0.05 ml, 2 mM) and water (0.2 ml) without ferrozine. Then, the sample and blank absorbance were recorded at 562 nm after incubation for 10 min at room temperature. The absorbance of the blank was subtracted from that of the sample. EDTA was used as a positive control and this property was expressed as IC50 value for each compound.

A short description of data set [6]: Cupric ion reducing activity (CUPRAC). The method, then: The cupric ion reducing activity (CUPRAC) was determined according to the method of Zengin et al.[38]. The sample solution (0.5 ml) was added to a premixed reaction mixture containing CuCl2 (1 ml, 10 mM), neocuproine (1 ml, 7.5 mM), and NH4Ac buffer (1 ml, 1 M, pH 7.0). Similarly, a blank was prepared by adding the sample solution (0.5 ml) to a premixed reaction mixture (3 ml) without CuCl2. The absorbances of the sample and blank were subsequently recorded at 450 nm after 30 min incubation at room temperature. The absorbance of the blank was subtracted from that of the sample.
as §2

Data set [7] in a line: ABTS radical cation scavenging activity. The method, then:
as §1

The target in data set [8] is T1, hMAO-B. In words: Lineweaver-Burk plots, mode of inhibition and Ki. The data set is classed as biochemical. The method, then:
To construct Lineweaver–Burk plots, the enzyme reactions were carried out to a volume of 500 µL and the concentration of MAO-B was 0.015 mg protein/mL. All enzyme reactions and activity measurements were carried out as described above for the dialysis experiments. The first plot was constructed in the absence of inhibitor, while the remaining five plots were constructed in the presence of the following concentrations: ¼ × IC50, ½ × IC50, ¾ × IC50, 1 × IC50 and 1¼ × IC50. For each line, kynuramine was used at concentrations of 15–250 μM. The Ki value was estimated from a plot of the slopes of the Lineweaver–Burk plots versus inhibitor concentration (x-axis intercept equals –Ki).
To provide further support for the reversibility of MAO-B inhibition by compounds 4 and 37, a set of Lineweaver–Burk plots was constructed for each inhibitor at the following inhibitor concentrations: ¼ × IC50, ½ × IC50, ¾ × IC50, 1 × IC50, and 1¼ × IC50. The substrate, kynuramine, was used at 15–250 µM for each line. […] The lines of the plots intersect on the y-axis and a replot of the slopes versus inhibitor concentration yields a linear line, from which the enzyme-inhibitor dissociation constant (Ki) was estimated (Ki = −x-axis intercept).

The target in data set [9] is T1, hMAO-B. In words: Reversibility of MAO-B inhibition by dialysis. The data set is classed as biochemical. The method, then:
Stock solutions of the test compounds were prepared in DMSO and added to the incubations to yield 4% DMSO. The samples were dialyzed for 24 h at 4 °C in 80 ml of dialysis buffer using Slide-A-Lyzer® dialysis cassettes (Thermo Scientific) with a molecular weight cut-off of 10,000 and a sample volume capacity of 0.5–3 ml. The dialysis buffer was replaced at 3 and 7 h after the start of dialysis. Following dialysis, the dialysis samples were diluted twofold with the addition of kynuramine to yield a kynuramine concentration and inhibitor concentration of 50 µM and 2 × IC50, respectively. The reactions (500 µL) were incubated for 20 min at 37 °C and terminated with NaOH (400 μL, 2 N) and water (1000 µL). The fluorescence of 4-hydroxyquinoline in these samples was measured as described for the IC50 determination above. […] Undialysed mixtures of MAO-B and the test inhibitors were maintained at 4 °C for 24 h and diluted and assayed as above. All reactions were carried out in triplicate and the residual enzyme catalytic rates are expressed as mean ± SD.
Reversibility of MAO inhibition is an important factor to consider when evaluating the inhibition properties of potential inhibitors. Irreversible MAO inhibitors, particularly of the MAO-A isoform, are associated with dangerous adverse effects such as the cheese reaction, which occurs when irreversible MAO-A inhibitors are taken with tyramine-rich food[51]. […] The samples were diluted twofold and the residual MAO-B activity was measured. For reversible inhibition, dialysis is expected to reverse inhibition by the test inhibitors and restore enzyme activity to the level of the negative control. […] A final experiment consisted of incubations containing MAO-B and tested inhibitors which were not dialyzed, but maintained for 24 h.

The mark [10] stands for this setting: recombinant hMAO-B, kynuramine 50 μM, 20 min, 37 °C, read-out: IC50 hMAO-B.

`O=[N+]([O-])c1cccc(-c2csc(NN=Cc3ccco3)n2)c1` [Compound 1, 1-(Furan-2-ylmethylene)-2-(4-(3-nitrophenyl)thiazol-2-yl)hydrazine] showed a melting point of 213 to 215 °C. Also, the IC50 at hMAO-B [1] (setting [10]) turned out to be 0.095 µM.

As to `CC(=NNc1nc(-c2cccc([N+](=O)[O-])c2)cs1)c1ccsc1` [Compound 5, 1-(4-(3-Nitrophenyl)thiazol-2-yl)-2-(1-(thiophen-3-yl)ethylidene)hydrazine], the IC50 was 1210 ± 10 µM in data set [2], more than 5000 µM in data set [5], 0.0025 µM at hMAO-B [1] and 1050 ± 20 µM in [7]. Further, the EC50 in data set [3] stood at 520 ± 20 µM; in data set [4] it was 1160 ± 30 µM; in data set [6] it was 480 ± 30 µM.

`CC(=NNc1nc(-c2cccc([N+](=O)[O-])c2)cs1)c1ccccc1` [Compound 11, 1-(4-(3-Nitrophenyl)thiazol-2-yl)-2-(1-phenylethylidene)hydrazine] showed a melting point of 261 to 263 °C. The compound further came in with an IC50 in [2] of 1280 ± 10 µM. This compound also had an EC50 in data set [3] of 590 ± 10 µM. In data set [4], this compound returned an EC50 of 1460 ± 80 µM. This compound displayed an IC50 in data set [5] of more than 5000 µM. The EC50 in data set [6] was determined as 550 ± 20 µM. Further, at hMAO-B [1], the IC50 was 0.0071 µM and the “Selectivity index (SI) for the MAO-B isoform” value (“Selectivity index (SI)” below) worked out at 666. Moreover, the IC50 in [7] was found to be 1040 ± 10 µM.

As to `CC(=NNc1nc(-c2cccc([N+](=O)[O-])c2)cs1)c1ccccc1[N+](=O)[O-]` [Compound 13, 1-(1-(2-Nitrophenyl)ethylidene)-2-(4-(3-nitrophenyl)thiazol-2-yl)hydrazine], the IC50 in data set [2] is 1590 ± 10 µM; in [5], more than 5000 µM; at hMAO-B [1] (setting [10]) it was 0.0044 µM; in data set [7] it was 1040 ± 10 µM. The EC50 turned out to be 450 ± 40 µM in [3], 3100 ± 360 µM in [4] and 400 ± 10 µM in data set [6]. Besides, the “Selectivity index (SI)” value at hMAO-B [1] stood at 3477.

`CC(=O)c1ccc(C(C)=NNc2nc(-c3cccc([N+](=O)[O-])c3)cs2)cc1` [Compound 31, 1-(1-(4-Acetylphenyl)ethylidene)-2-(4-(3-nitrophenyl)thiazol-2-yl)hydrazine] gave a melting point of 205 to 207 °C. In addition, at hMAO-B [1], the “Selectivity index (SI)” value came to 5.4. For the same compound, the IC50 on hMAO-B [1] (setting [10]) was determined as 42.1 µM.

In the case of `Nc1cccc(-c2csc(N/N=C/c3cccs3)n2)c1` [Compound 37], the Ki at hMAO-B [8] came out at 1.84 µM. The “Mode of MAO-B inhibition” value at hMAO-B [8] (Lineweaver-Burk plots) is recorded as “competitive”. The “Reversibility of MAO-B inhibition” value at hMAO-B [9] (dialysis 24 h) is recorded as “fully reversible”. The “Residual MAO-B activity, undialysed mixtures” value at hMAO-B [9] (inhibitor at 4 × IC50, not dialyzed, maintained 24 h) was 20%. Also, the “Residual MAO-B activity after dialysis” value at hMAO-B [9] (inhibitor at 4 × IC50, preincubated 15 min, dialyzed 24 h, relative to negative control) stood at 97%. This compound yielded an IC50 at hMAO-B [1] of 2.67 µM.
